Experiment [1] deals with MDA-MB-435 breast adenocarcinoma cells. In words: Flow cytometry of CD44/CD173/CD174 expression after 4-OHT treatment. It counts as cell-based. Particulars: MDA-MB-435, 20 nM for 24 h, P>0.05. As for the experimental part: (§1) Cell suspensions from established cell lines were prepared at a density of 1×10^6 cells/100 μl. They were washed twice with phosphate buffered saline (PBS) containing 2% BSA and incubated with primary antibodies at 4° for 20 min, followed by anti IgG-Cy3 (γ chain-specific) and anti IgM-FITC (μ chain-specific) in appropriate concentrations at 4° for 20 min. Flow cytometry was performed on a FACScan (BD Biosciences, Franklin Lakes, N.J., USA). Collected data from 10,000 cells and WinMDI software were used for the analysis of FACS […]. For 4-hydroxytamoxifen treatment, MDA-MB-231, MDA-MB-435 and MCF-7 breast adenocarcinoma cell lines were exposed to 4-OHT (#H6278, Sigma) at a final concentration of 20 nM for 24 h. Then flow cytometry analysis was performed as described above.

The subject of experiment [2] is MDA-MB-231 breast adenocarcinoma cells. Described as above. The settings on record: MDA231, 20 nM for 24 h, P<0.05. It counts as cell-based. As for the experimental part:
as §1

In experiment [3] the test system is MCF-7 breast adenocarcinoma cells. Described as above. It counts as cell-based. The settings on record: MCF-7, 20 nM for 24 h, P>0.05. As for the experimental part:
as §1

The subject of experiment [4] is MDA231 breast adenocarcinoma cells. In words: Flow cytometry of CD44/CD176 expression after 4-OHT treatment. It counts as cell-based, human. The procedure:
(§2) Cell suspensions of cell lines were prepared at 1×10^6 cells/100 μl. Cells were washed twice with PBS containing 2% BSA and incubated with primary antibodies at appropriate dilutions at 4° C. for 20 min, followed by anti-IgG-Cy3 (γ chain-specific) and anti-IgM-FITC (μ chain-specific) at appropriate concentrations at 4° C. for 20 min. Flow cytometry was performed with a FACScan (BD Biosciences, Franklin Lakes, N.J., USA). Collected data from 10,000 cells and WinMDI software were used in the analysis of FCS […]. For 4-hydroxytamoxifen treatment, MDA231, MDA435 and MCF-7 breast adenocarcinoma cell lines were exposed to 4-OHT (#H6278, Sigma) at a final concentration of 20 nM for 24 h. Then flow cytometry analysis was performed as described above.

The subject of experiment [5] is MDA435 breast adenocarcinoma cells. The description is as above. It counts as cell-based, human. Particulars: for change in percentage of CD44^+/CD176^+ cells after treatment: MDA435, 24 h, 20 nM. The procedure: as §2
Experiment [6] relates to MCF-7 breast adenocarcinoma cells. The experiment is described as above. The class given is cell-based, human. As for the experimental part: as §2
Setting [7] is: MDA231, 4-OHT 20 nM for 24 h, percent of the positive cells.
The mark [8] stands for this setting: MDA435, 4-OHT 20 nM for 24 h, percent of the positive cells.
The mark [9] stands for this setting: MCF-7, 4-OHT 20 nM for 24 h, percent of the positive cells.

In the case of `CC/C(=C(\c1ccc(O)cc1)c1ccc(OCCN(C)C)cc1)c1ccccc1` [4-OHT, 4-hydroxytamoxifen], the results for the “change in percentage of CD44^+CD173^+ cells after treatment” value in experiment [1], in experiment [2] and in experiment [3] were “not”, “increased” and “not”, respectively. Further, the “change in percentage of CD44^+CD174^+ cells after treatment” value in experiment [1] is listed as “not”; in experiment [2] it was “increased”; in experiment [3] it was “not”. Moreover, the “CD44^+/C176^+ cells” value in experiment [4] (setting [7]) is given as approximately 2%; in experiment [5] (setting [8]) it was approximately 12%; in experiment [6] (setting [9]), approximately 8%. Besides, the “CD44^+/CD176^− cells” value in experiment [4] (setting [7]) was approximately 1%; in experiment [5] (setting [8]) it was approximately 50%; in experiment [6] (setting [9]), approximately 20%. Moreover, the “CD44^−/CD176^+ cells” value in experiment [4] (setting [7]) is reported as approximately 13%; in experiment [5] (setting [8]) it was approximately 7%; in experiment [6] (setting [9]), approximately 8%. Moreover, the “CD44^−/CD176^− cells” value is on record as more than 60% in experiment [4] (setting [7]), approximately 31% in experiment [5] (setting [8]) and more than 60% in experiment [6] (setting [9]). The “change in number of CD44^+/CD176^+ co-expressing cells after treatment” value in experiment [4] (MDA231, 24 h, 20 nM) is on record as “no significantly increased number”; in experiment [6] (MCF-7, 24 h, 20 nM), “no significantly increased number”. Moreover, the entries for the “change in percentage of CD44^+/CD176^+ cells after treatment” value in experiment [5] and in experiment [5] (listed as tamoxifen) were “increased” and “enhanced”, respectively.

Values taken from US20120294859A1, “CANCER STEM CELL MARKERS AND USES THEREOF” (GLYCOTOPE GMBH, priority 2010, published 2012).
